From the NIST ThermoML archive (doi:10.1016/j.fluid.2008.09.004)
± gives the expanded uncertainty stated by the source.

Legend:
[1] = molar heat capacity at constant pressure; xn = mol fraction of the nth substance listed; settings: 101 kPa, Liquid, Small sample (50 mg) DSC
[2] = excess molar enthalpy (molar enthalpy of mixing); xn = mol fraction of the nth substance listed; settings: 303.15 K, 101 kPa, Liquid, Calvet calorimetry
[3] = xn = mol fraction of the nth substance listed; settings: 101 kPa, Liquid, Vibrating tube method

CCCCCCn1cc[n+](C)c1.F[B-](F)(F)F [1-hexyl-3-methylimidazolium tetrafluoroborate] + CCO
molar heat capacity at constant pressure ([1]; 293.15 K, x1 = 0.1052): 152 ± 2.4 J/K/mol | molar heat capacity at constant pressure ([1]; 293.15 K, x1 = 0.2011): 184.5 ± 2.9 J/K/mol | molar heat capacity at constant pressure ([1]; 293.15 K, x1 = 0.2832): 209.9 ± 3.3 J/K/mol | molar heat capacity at constant pressure ([1]; 293.15 K, x1 = 0.3846): 240.4 ± 3.7 J/K/mol | molar heat capacity at constant pressure ([1]; 293.15 K, x1 = 0.4943): 272.3 ± 4.2 J/K/mol | molar heat capacity at constant pressure ([1]; 293.15 K, x1 = 0.5486): 288 ± 4.5 J/K/mol | molar heat capacity at constant pressure ([1]; 293.15 K, x1 = 0.6882): 328.8 ± 5.1 J/K/mol | molar heat capacity at constant pressure ([1]; 293.15 K, x1 = 0.7879): 358.6 ± 5.6 J/K/mol | molar heat capacity at constant pressure ([1]; 293.15 K, x1 = 0.8791): 387.1 ± 6 J/K/mol | molar heat capacity at constant pressure ([1]; 298.15 K, x1 = 0.1052): 153.6 ± 2.4 J/K/mol | molar heat capacity at constant pressure ([1]; 298.15 K, x1 = 0.2011): 185.9 ± 2.9 J/K/mol | molar heat capacity at constant pressure ([1]; 298.15 K, x1 = 0.2832): 211.4 ± 3.3 J/K/mol | molar heat capacity at constant pressure ([1]; 298.15 K, x1 = 0.3846): 241.8 ± 3.7 J/K/mol | molar heat capacity at constant pressure ([1]; 298.15 K, x1 = 0.4943): 273.8 ± 4.2 J/K/mol | molar heat capacity at constant pressure ([1]; 298.15 K, x1 = 0.5486): 289.7 ± 4.5 J/K/mol | molar heat capacity at constant pressure ([1]; 298.15 K, x1 = 0.6882): 330.9 ± 5.1 J/K/mol | molar heat capacity at constant pressure ([1]; 298.15 K, x1 = 0.7879): 360.8 ± 5.6 J/K/mol | molar heat capacity at constant pressure ([1]; 298.15 K, x1 = 0.8791): 389.4 ± 6 J/K/mol | molar heat capacity at constant pressure ([1]; 303.15 K, x1 = 0.1052): 155 ± 2.4 J/K/mol | molar heat capacity at constant pressure ([1]; 303.15 K, x1 = 0.2011): 187.3 ± 2.9 J/K/mol | molar heat capacity at constant pressure ([1]; 303.15 K, x1 = 0.2832): 212.8 ± 3.3 J/K/mol | molar heat capacity at constant pressure ([1]; 303.15 K, x1 = 0.3846): 243 ± 3.8 J/K/mol | molar heat capacity at constant pressure ([1]; 303.15 K, x1 = 0.4943): 275.2 ± 4.3 J/K/mol | molar heat capacity at constant pressure ([1]; 303.15 K, x1 = 0.5486): 291.3 ± 4.5 J/K/mol | molar heat capacity at constant pressure ([1]; 303.15 K, x1 = 0.6882): 332.9 ± 5.2 J/K/mol | molar heat capacity at constant pressure ([1]; 303.15 K, x1 = 0.7879): 363 ± 5.6 J/K/mol | molar heat capacity at constant pressure ([1]; 303.15 K, x1 = 0.8791): 391.6 ± 6.1 J/K/mol | molar heat capacity at constant pressure ([1]; 308.15 K, x1 = 0.1052): 156.6 ± 2.4 J/K/mol | molar heat capacity at constant pressure ([1]; 308.15 K, x1 = 0.2011): 188.6 ± 2.9 J/K/mol | molar heat capacity at constant pressure ([1]; 308.15 K, x1 = 0.2832): 214.1 ± 3.3 J/K/mol | molar heat capacity at constant pressure ([1]; 308.15 K, x1 = 0.3846): 244.4 ± 3.8 J/K/mol | molar heat capacity at constant pressure ([1]; 308.15 K, x1 = 0.4943): 276.7 ± 4.3 J/K/mol | molar heat capacity at constant pressure ([1]; 308.15 K, x1 = 0.5486): 293 ± 4.5 J/K/mol | molar heat capacity at constant pressure ([1]; 308.15 K, x1 = 0.6882): 334.9 ± 5.2 J/K/mol | molar heat capacity at constant pressure ([1]; 308.15 K, x1 = 0.7879): 365 ± 5.7 J/K/mol | molar heat capacity at constant pressure ([1]; 308.15 K, x1 = 0.8791): 393.9 ± 6.1 J/K/mol | molar heat capacity at constant pressure ([1]; 313.15 K, x1 = 0.1052): 158.1 ± 2.5 J/K/mol | molar heat capacity at constant pressure ([1]; 313.15 K, x1 = 0.2011): 189.9 ± 2.9 J/K/mol | molar heat capacity at constant pressure ([1]; 313.15 K, x1 = 0.2832): 215.4 ± 3.3 J/K/mol | molar heat capacity at constant pressure ([1]; 313.15 K, x1 = 0.3846): 245.7 ± 3.8 J/K/mol | molar heat capacity at constant pressure ([1]; 313.15 K, x1 = 0.4943): 278.1 ± 4.3 J/K/mol | molar heat capacity at constant pressure ([1]; 313.15 K, x1 = 0.5486): 294.6 ± 4.6 J/K/mol | molar heat capacity at constant pressure ([1]; 313.15 K, x1 = 0.6882): 336.9 ± 5.2 J/K/mol | molar heat capacity at constant pressure ([1]; 313.15 K, x1 = 0.7879): 367.1 ± 5.7 J/K/mol | molar heat capacity at constant pressure ([1]; 313.15 K, x1 = 0.8791): 396.1 ± 6.1 J/K/mol | molar heat capacity at constant pressure ([1]; 318.15 K, x1 = 0.1052): 159.8 ± 2.5 J/K/mol | molar heat capacity at constant pressure ([1]; 318.15 K, x1 = 0.2011): 191.2 ± 3 J/K/mol | molar heat capacity at constant pressure ([1]; 318.15 K, x1 = 0.2832): 216.7 ± 3.4 J/K/mol | molar heat capacity at constant pressure ([1]; 318.15 K, x1 = 0.3846): 247.1 ± 3.8 J/K/mol | molar heat capacity at constant pressure ([1]; 318.15 K, x1 = 0.4943): 279.6 ± 4.3 J/K/mol | molar heat capacity at constant pressure ([1]; 318.15 K, x1 = 0.5486): 296.2 ± 4.6 J/K/mol | molar heat capacity at constant pressure ([1]; 318.15 K, x1 = 0.6882): 338.9 ± 5.3 J/K/mol | molar heat capacity at constant pressure ([1]; 318.15 K, x1 = 0.7879): 369 ± 5.7 J/K/mol | molar heat capacity at constant pressure ([1]; 318.15 K, x1 = 0.8791): 398.3 ± 6.2 J/K/mol | excess molar enthalpy ([2]; x1 = 0.101): 0.322 ± 0.0263 kcal/mol | excess molar enthalpy ([2]; x1 = 0.2037): 0.489 ± 0.0382 kcal/mol | excess molar enthalpy ([2]; x1 = 0.3018): 0.576 ± 0.0454 kcal/mol | excess molar enthalpy ([2]; x1 = 0.3977): 0.614 ± 0.0502 kcal/mol | excess molar enthalpy ([2]; x1 = 0.4988): 0.592 ± 0.0478 kcal/mol | excess molar enthalpy ([2]; x1 = 0.6045): 0.522 ± 0.0406 kcal/mol | excess molar enthalpy ([2]; x1 = 0.6901): 0.443 ± 0.0359 kcal/mol | excess molar enthalpy ([2]; x1 = 0.7932): 0.314 ± 0.0263 kcal/mol | excess molar enthalpy ([2]; x1 = 0.8733): 0.203 ± 0.0163 kcal/mol | mass density ([3]; 293.15 K, x1 = 0.1052): 904.3 ± 0.3 kg/m3 | mass density ([3]; 293.15 K, x1 = 0.2011): 969.7 ± 0.2 kg/m3 | mass density ([3]; 293.15 K, x1 = 0.2832): 1009.1 ± 0.2 kg/m3 | mass density ([3]; 293.15 K, x1 = 0.3846): 1045.5 ± 0.2 kg/m3 | mass density ([3]; 293.15 K, x1 = 0.4943): 1075.1 ± 0.2 kg/m3 | mass density ([3]; 293.15 K, x1 = 0.5486): 1086.6 ± 0.2 kg/m3 | mass density ([3]; 293.15 K, x1 = 0.6882): 1111.6 ± 0.3 kg/m3 | mass density ([3]; 293.15 K, x1 = 0.7748): 1124 ± 0.3 kg/m3 | mass density ([3]; 293.15 K, x1 = 0.7988): 1127.1 ± 0.3 kg/m3 | mass density ([3]; 293.15 K, x1 = 0.8521): 1133.6 ± 0.3 kg/m3 | mass density ([3]; 298.15 K, x1 = 0.1052): 900.2 ± 0.3 kg/m3 | mass density ([3]; 298.15 K, x1 = 0.2011): 965.8 ± 0.2 kg/m3 | mass density ([3]; 298.15 K, x1 = 0.2832): 1005.2 ± 0.2 kg/m3 | mass density ([3]; 298.15 K, x1 = 0.3846): 1041.7 ± 0.2 kg/m3 | mass density ([3]; 298.15 K, x1 = 0.4943): 1071.4 ± 0.2 kg/m3 | mass density ([3]; 298.15 K, x1 = 0.5486): 1082.9 ± 0.2 kg/m3 | mass density ([3]; 298.15 K, x1 = 0.6882): 1108 ± 0.3 kg/m3 | mass density ([3]; 298.15 K, x1 = 0.7748): 1120.5 ± 0.3 kg/m3 | mass density ([3]; 298.15 K, x1 = 0.7988): 1123.6 ± 0.3 kg/m3 | mass density ([3]; 298.15 K, x1 = 0.8521): 1130.1 ± 0.3 kg/m3 | mass density ([3]; 303.15 K, x1 = 0.1052): 896.2 ± 0.3 kg/m3 | mass density ([3]; 303.15 K, x1 = 0.2011): 961.8 ± 0.2 kg/m3 | mass density ([3]; 303.15 K, x1 = 0.2832): 1001.4 ± 0.2 kg/m3 | mass density ([3]; 303.15 K, x1 = 0.3846): 1037.9 ± 0.2 kg/m3 | mass density ([3]; 303.15 K, x1 = 0.4943): 1067.7 ± 0.2 kg/m3 | mass density ([3]; 303.15 K, x1 = 0.5486): 1079.3 ± 0.2 kg/m3 | mass density ([3]; 303.15 K, x1 = 0.6882): 1104.4 ± 0.3 kg/m3 | mass density ([3]; 303.15 K, x1 = 0.7748): 1117 ± 0.3 kg/m3 | mass density ([3]; 303.15 K, x1 = 0.7988): 1120.1 ± 0.3 kg/m3 | mass density ([3]; 303.15 K, x1 = 0.8521): 1126.6 ± 0.3 kg/m3 | mass density ([3]; 308.15 K, x1 = 0.1052): 892.1 ± 0.3 kg/m3 | mass density ([3]; 308.15 K, x1 = 0.2011): 957.9 ± 0.2 kg/m3 | mass density ([3]; 308.15 K, x1 = 0.2832): 997.6 ± 0.2 kg/m3 | mass density ([3]; 308.15 K, x1 = 0.3846): 1034.2 ± 0.2 kg/m3 | mass density ([3]; 308.15 K, x1 = 0.4943): 1064 ± 0.2 kg/m3 | mass density ([3]; 308.15 K, x1 = 0.5486): 1075.6 ± 0.2 kg/m3 | mass density ([3]; 308.15 K, x1 = 0.6882): 1100.9 ± 0.3 kg/m3 | mass density ([3]; 308.15 K, x1 = 0.7748): 1113.5 ± 0.3 kg/m3 | mass density ([3]; 308.15 K, x1 = 0.7988): 1116.6 ± 0.3 kg/m3 | mass density ([3]; 308.15 K, x1 = 0.8521): 1123.1 ± 0.3 kg/m3 | mass density ([3]; 313.15 K, x1 = 0.1052): 888 ± 0.3 kg/m3 | mass density ([3]; 313.15 K, x1 = 0.2011): 954 ± 0.2 kg/m3 | mass density ([3]; 313.15 K, x1 = 0.2832): 993.7 ± 0.2 kg/m3 | mass density ([3]; 313.15 K, x1 = 0.3846): 1030.4 ± 0.2 kg/m3 | mass density ([3]; 313.15 K, x1 = 0.4943): 1060.4 ± 0.2 kg/m3 | mass density ([3]; 313.15 K, x1 = 0.5486): 1072 ± 0.2 kg/m3 | mass density ([3]; 313.15 K, x1 = 0.6882): 1097.4 ± 0.3 kg/m3 | mass density ([3]; 313.15 K, x1 = 0.7748): 1110 ± 0.3 kg/m3 | mass density ([3]; 313.15 K, x1 = 0.7988): 1113.1 ± 0.3 kg/m3 | mass density ([3]; 313.15 K, x1 = 0.8521): 1119.7 ± 0.3 kg/m3 | mass density ([3]; 318.15 K, x1 = 0.1052): 883.9 ± 0.3 kg/m3 | mass density ([3]; 318.15 K, x1 = 0.2011): 950 ± 0.2 kg/m3 | mass density ([3]; 318.15 K, x1 = 0.2832): 989.8 ± 0.2 kg/m3 | mass density ([3]; 318.15 K, x1 = 0.3846): 1026.7 ± 0.2 kg/m3 | mass density ([3]; 318.15 K, x1 = 0.4943): 1056.7 ± 0.2 kg/m3 | mass density ([3]; 318.15 K, x1 = 0.5486): 1068.4 ± 0.2 kg/m3 | mass density ([3]; 318.15 K, x1 = 0.6882): 1093.8 ± 0.3 kg/m3 | mass density ([3]; 318.15 K, x1 = 0.7748): 1106.5 ± 0.3 kg/m3 | mass density ([3]; 318.15 K, x1 = 0.7988): 1109.6 ± 0.3 kg/m3 | mass density ([3]; 318.15 K, x1 = 0.8521): 1116.2 ± 0.3 kg/m3
